Tests used:
[1] = test system: Dietary hyperlipidemia New-Zealand female rabbits; experiment: Lipid metabolism of hyperlipidemia New-Zealand female rabbit model; format: in vivo; conditions: hyperlipidemia unsexed female rabbits, dose 3 mg/kg, gavage, 12 weeks; for HDL-C: model 0.871 ± 0.30; for TG: model 3.98 ± 0.79; for LDL-C: model 11.63 ± 2.30; for TC: model 33.92 ± 3.49; for Ox-LDL: plasma ELISA, model 1.63 ± 0.30
From the text: Purebred New Zealand female rabbits were unsexed and fed with 0.5% cholesterol diet, and intravenously injected with bovine serum albumin to establish the model. The experimental animals were 49 New Zealand Angora purebred female rabbits, 1.8-2.2 kg, 3-4 months old which were provided by Guangdong Province Experimental Animal Center. […] In the sham-operated group, the sham operation was confirmed (cutting a small piece of fat tissues around the ovary), without removing the ovaries. The rabbits were given ordinary commercial feed (120-150 g/d) after surgery. […] In the compound Fufang tiaozhi FTZ group (equal to five times of clinical adult daily dose) and other administration groups, the rabbits were administrated with drugs by gavage. The control group and the model group were fed and administrated by gavage with same volume of normal saline. The body weights were examined at 12 weeks of the experiment. 2 ml blood was taken by the ear artery for blood lipid measurement. The rabbits were fasted for 16 h before each blood sampling. […] The total cholesterol, triglyceride, HDLC and LDLC were detected by automatic biochemical analyzer and the steps were carried out according to the kit instructions. The OX-LDL in plasma was measured by ELISA, according to kit instructions.

[2] = test system: L-O2 Lipoprotein Lipase of Liver Cells (LPL); experiment: LPL activity in L-O2 hepatocytes (colorimetric kit); format: cell-based, human; conditions: 50.0 μg/ml, normal 12.63 ± 0.67
Protocol: The L-O2 human normal liver cells were cultured in routine way, various concentrations of FTZCE were respectively added after cells fusion, continuously cultured the cells for a certain time followed by collecting cells to prepare cell homogenates. Using LPL/HL detection kit (Nanjing Jiancheng Biotechnology Research Institute), the LPL/HL activity was detected by colorimetric method to research the effects of various composition of extracts from plants conbination on LPL activity and compare the enzyme activity of hepatocyte LPL/HL under the action of different concentrations of FTZEC. The gene expressions of hepatocyte LPL/HL were determined by RT-PCR method to observe the affects of FTZEC on the hepatocyte LPL/HL gene expression.

[3] = test system: Dietary hyperlipidemia rats; experiment: Blood lipid of dietary hyperlipemia model in rats; format: in vivo, SD rats; conditions: serum, dose 3 mg/kg, 8 weeks; for HDL-C: high lipid control 0.71 ± 0.30; for LDL-C: high lipid control 1.43 ± 0.30; for TC: high lipid control 3.32 ± 0.49
Protocol: Observe the effects of different doses of FTZEC on the serum TC, TG, LDL-C, and HDL-C of hyperlipemia rats.
In addition to ordinary feed in control group, other groups were given high fat emulsion in 10 ml/kg every morning by gavage beside the ordinary feed, and given corresponding drugs 4 hours after feeding, in which the normal group and the model groups were given equal amount of normal saline, administrated for continuous 8 weeks. These animals were fasted for 1 d, when water was given, in the next morning, the blood was taken from orbital veniplex after the last administration, centrifuged and separated the serum to test the TC, TG, HDL-C, LDL-C respectively.

[4] = test system: hypercholesterolemic patients; experiment: Clinical validation in hyperlipemia patients: blood lipids and efficacy rate; format: in vivo, human; conditions: patients n = 30, one tablet twice a day, 2 months
Protocol: 60 cases with hyperlipemia treated by FTZEC were analyzed, using the tablets obtained in Experiment 1. The experiment was confirmed according to Principles for Clinical Study of New Chinese Medicines in hyperlipemia, Ministry of Health of the People's Republic of China. 60 cases were in-patients or out-patients with hyperlipidemia diagnosed according to diagnostic criteria (1985), of which 40 cases were outpatients and 20 cases were in-patients; the patients were randomly divided into two groups, the treatment group and the control group. […] All patients accepted hyperlipidemia education, diet control, and regular exercise. […] 5.2 Efficiency standard of blood lipid Clinical control: the experimental examination returned to normal. Marked effective: the blood lipid detection achieved any one of the following indexes: […] Effective: the blood lipid detection achieved any one of the following indexes: […] Note: when determine the efficacy of the complicated hyperlipidemia, if the two indicators were not consistent, the lower efficacy was determined as the final result.

HMG-CoA reductase = target: T1, HMG-CoA reductase (Rattus norvegicus, UniProt P51639); experiment: Inhibition of HMG-CoA reductase activity (rat liver cell microsomes); format: biochemical, rats
T1 construct: The rats liver cells microsomes were prepared into HMG-CoA reductase solution; from tissue; host or cells: rat liver cell microsomes
T1 sequence (P51639 1-887): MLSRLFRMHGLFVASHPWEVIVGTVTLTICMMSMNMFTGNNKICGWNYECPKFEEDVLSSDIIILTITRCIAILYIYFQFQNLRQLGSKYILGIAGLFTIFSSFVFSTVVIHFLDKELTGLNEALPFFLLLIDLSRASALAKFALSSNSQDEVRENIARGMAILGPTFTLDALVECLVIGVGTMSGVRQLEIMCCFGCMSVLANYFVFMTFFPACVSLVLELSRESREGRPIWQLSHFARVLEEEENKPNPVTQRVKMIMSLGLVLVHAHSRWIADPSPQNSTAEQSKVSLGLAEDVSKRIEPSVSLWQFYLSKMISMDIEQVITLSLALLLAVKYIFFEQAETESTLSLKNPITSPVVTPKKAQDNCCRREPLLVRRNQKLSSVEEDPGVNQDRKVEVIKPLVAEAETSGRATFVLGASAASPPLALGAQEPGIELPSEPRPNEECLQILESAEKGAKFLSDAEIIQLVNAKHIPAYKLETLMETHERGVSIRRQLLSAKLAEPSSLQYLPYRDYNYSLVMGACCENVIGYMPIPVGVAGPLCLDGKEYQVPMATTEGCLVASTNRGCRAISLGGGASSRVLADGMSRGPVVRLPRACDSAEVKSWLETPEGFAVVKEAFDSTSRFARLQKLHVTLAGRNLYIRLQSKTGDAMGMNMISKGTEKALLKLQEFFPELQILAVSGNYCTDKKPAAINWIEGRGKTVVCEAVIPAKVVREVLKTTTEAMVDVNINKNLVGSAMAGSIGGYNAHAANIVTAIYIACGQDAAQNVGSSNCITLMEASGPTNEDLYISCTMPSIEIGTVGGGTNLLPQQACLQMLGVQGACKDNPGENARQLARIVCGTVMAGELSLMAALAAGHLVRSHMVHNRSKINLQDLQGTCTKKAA
Protocol: Test the effects of various FTZEC conbination in vitro experiment on inhibiting HMGCoA reductase activity and calculate the IC50 of the composition of extracts from plants on inhibition of HMGCoA reductase and compare with pravastatin.
The rats liver cells microsomes were prepared into HMG-CoA reductase solution. The activities of the HMG-CoA reductase were determined by literature method. The enzyme activity in each group was respectively determined to calculate the IC50 (μg/ml) of FTZEC on HMG-CoA reductase activity.

| SMILES | HDL-C [1] | TG [1] | LDL-C [1] | TC [1] | Ox-LDL [1] | LPL activity [2] | HDL-C [3] | LDL-C [3] | TC [3] | TG ([3]; high lipid control 3.28 ± 0.79) | Effective Cases [4] | Effective Rate % [4] | Invalid Cases [4] | Invalid Rate % [4] | Marked effective Cases [4] | Marked effective Rate % [4] | Total effective rate % [4] | IC50 (HMG-CoA reductase) |
| --- | --- | --- | --- | --- | --- | --- | --- | --- | --- | --- | --- | --- | --- | --- | --- | --- | --- | --- |
| CC(C)OC(=O)C(C)(C)Oc1ccc(C(=O)c2ccc(Cl)cc2)cc1 [Fenofibrate] | 1.06 ± 0.26 mmol/L | 1.88 ± 0.82 mmol/L | 4.99 ± 2.25 mmol/L | 19.89 ± 2.62 mmol/L | 0.99 ± 0.25 mmol/L | 16.95 ± 3.02 g FFA/mL supernatant · h | 1.22 ± 0.43 mmol/L | 0.89 ± 0.42 mmol/L | 2.85 ± 0.45 mmol/L |  |  |  |  |  |  |  |  |  |
| CC[C@H](C)C(=O)O[C@H]1C[C@@H](C)C=C2C=C[C@H](C)[C@H](CC[C@@H]3C[C@@H](O)CC(=O)O3)[C@H]21 [Lovastatin] |  |  |  |  |  |  | 0.96 ± 0.26 mmol/L | 0.91 ± 0.25 mmol/L | 2.29 ± 0.32 mmol/L | 2.08 ± 0.82 mmol/L |  |  |  |  |  |  |  |  |
| CC[C@H](C)C(=O)O[C@H]1C[C@H](O)C=C2C=C[C@H](C)[C@H](CC[C@@H](O)C[C@@H](O)CC(=O)O)[C@H]21 [Pravastatin] | 1.36 ± 0.28 mmol/L | 2.08 ± 0.82 mmol/L | 10.29 ± 2.27 mmol/L | 12.69 ± 3.62 mmol/L | 1.29 ± 0.27 mmol/L |  |  |  |  |  | 15 | 50.0% | 4 | 13.3% | 11 | 36.7% | 86.7% | 4.36 µM |

— patent publication US8394431B2, “Composition of extracts from plants and the use thereof in prophylaxis or treatment of metabolism disorder of blood lipid” (priority 2008, dated 2013)
